“And” between values parts separate entries of the source, which are not always exact repeats. Equal values may be shown once. Read-outs that look alike come from different tables or passages of the source.
Legend:
human 5HT1A receptor [1] = biological target: T1, human 5HT1A receptor (Homo sapiens, UniProt P08908); experiment: [35S]GTPγS binding for 5-HT1A receptor inhibition (antagonist mode); assay type: biochemical; conditions: Example 78, HEK293 membranes, antagonist mode with serotonin 100 nM, <5 = not active at up to 10 μM; for IC50: read-out: h5HT1A Antagonist pIC50 (converted)
T1 construct: purchased Perkin Elmer; host or cells: HEK293 cells, stably transfected (membranes)
T1 sequence (P08908 1-422): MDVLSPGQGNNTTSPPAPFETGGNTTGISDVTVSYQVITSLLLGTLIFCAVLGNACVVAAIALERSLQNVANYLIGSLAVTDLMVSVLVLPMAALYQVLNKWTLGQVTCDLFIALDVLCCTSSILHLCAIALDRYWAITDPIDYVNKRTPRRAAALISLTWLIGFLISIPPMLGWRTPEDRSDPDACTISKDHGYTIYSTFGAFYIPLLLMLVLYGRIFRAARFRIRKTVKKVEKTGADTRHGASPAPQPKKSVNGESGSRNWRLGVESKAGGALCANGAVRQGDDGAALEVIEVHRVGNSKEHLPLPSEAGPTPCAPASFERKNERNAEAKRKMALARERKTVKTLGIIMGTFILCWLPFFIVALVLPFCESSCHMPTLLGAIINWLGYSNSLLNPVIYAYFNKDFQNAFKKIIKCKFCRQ
Experimental: Compounds showing affinity at the 5-HT1A receptor were tested for functional agonism and antagonism in a [^35S]GTPγS (guanine triphosphate (non-hydrolysable, labelled with ^35S) binding assay on membranes of HEK293 cells permanently transfected with human 5HT1A receptor (Perkin Elmer, USA).
Frozen membranes were thawed, briefly homogenized and were diluted in incubation buffer, 100 mM NaCl, 0.3 mM MgCl2 and 10 μM guanine diphosphate (GDP), pH 7.4-7.5) supplemented with 10 μg/ml saponin. Assay mixtures contained 10 μg of membrane protein and test compound, buffer, or control agonist (serotonin, 10 μM). For the antagonistic assay, control agonist was present in all wells containing compound at a sub-maximal concentration (serotonin, 100 nM). After 20 minutes pre-incubation at 37° C., [^35S]GTPγS was added to a final concentration of 0.25 nM, briefly shaken and further incubated for another 20 minutes. Reactions were terminated by rapid vacuum filtration through GF/B unifilter plates using a Packard Harvester. Filters were washed three times with wash buffer (10 mM NaH2PO4, 10 mM Na2HPO4, pH 7.4), dried overnight and bound counts were measured in a Topcount Scintillation Counter in the presence of Microscint O. % Specific Binding was calculated and curves were plotted with help of in house software where pIC50 values were determined and Kb values were calculated.

human 5-HTT = biological target: T2, human 5-HTT (Homo sapiens, UniProt P31645); experiment: Radioligand binding to 5-HTT (serotonin transporter, SERT), [3H]Paroxetine; conditions: membranes of HEK293 cells, [3H]Paroxetine 0.5 nM, <5 = not active at up to 10 μM
T2 construct: purchased Perkin-Elmer, USA; host or cells: HEK293 cells, stably transfected (membranes)
Experimental: For 5-HTT binding, frozen membranes of HEK293 cells stably-transfected with human 5-HTT (Perkin-Elmer, USA) were thawed on ice, briefly homogenised and resuspended in Tris-HCl buffer (50 mM, pH 7.4) supplemented with NaCl (120 mM) and KCl (5 mM) at a concentration of 50 μg protein per incubation mixture. The membrane suspension was added to the test compound together with [^3H]Paroxetine (0.5 nM) in a total volume of 250 μl and incubated (60 min, 25° C.). Non-specific binding was determined in the presence of imipramine (1 μM). Filtration was done over pre-soaked GF/B unifilters (0.01% PEI) and washed as above with the Tris-HCl salt buffer used for the incubation. Specific binding was calculated and sigmoidal curves were plotted by an internally-developed software program based on S-plus software. Ki values were calculated using the Cheng-Prusoff equation.

human 5HT1A receptor [2] = biological target: T1, human 5HT1A receptor; experiment: Radioligand binding to the 5-HT1A receptor, [3H]8-OH-DPAT; conditions: Example 77, membranes of HEK293 cells, [3H]8-OH-DPAT 0.5 nM, <5 = not active at up to 10 μM; for IC50: read-out: h5HT1A pIC50 (converted)
Experimental: Frozen membranes of HEK293 cells, stably-transfected with human 5-HT1A receptor (Perkin Elmer) were thawed on ice, briefly homogenised with an Ultra Turrax homogeniser and then suspended in Tris-HCl buffer (50 mM pH 7.7) supplemented with CaCl2 (4 mM) at an appropriate pre-determined protein concentration (5-10 μg protein per incubation mixture). Together with [^3H]8-OH-DPAT (0.5 nM final concentration; Perkin Elmer, USA), the membrane suspension was added to the test compound and incubated (30 min at 37° C.) in a total volume of 400 μl. Non-specific binding was determined in the presence of Spiroxatrine (1 μM). Free radioligand was separated from the radioligand-receptor complex by means of rapid vacuum filtration over GF/B unifilter plates with a Packard Harvester Filtration Unit. Unifilter plates were washed with ice cold Tris-HCl buffer (50 mM, pH 8.0) and then dried overnight. Bound counts were measured in a Topcount Scintillation Counter in the presence of Microscint O.

[3] = Example 77, read-out: h5HTT pIC50 (converted)

T2 sequence (P31645 whole entry): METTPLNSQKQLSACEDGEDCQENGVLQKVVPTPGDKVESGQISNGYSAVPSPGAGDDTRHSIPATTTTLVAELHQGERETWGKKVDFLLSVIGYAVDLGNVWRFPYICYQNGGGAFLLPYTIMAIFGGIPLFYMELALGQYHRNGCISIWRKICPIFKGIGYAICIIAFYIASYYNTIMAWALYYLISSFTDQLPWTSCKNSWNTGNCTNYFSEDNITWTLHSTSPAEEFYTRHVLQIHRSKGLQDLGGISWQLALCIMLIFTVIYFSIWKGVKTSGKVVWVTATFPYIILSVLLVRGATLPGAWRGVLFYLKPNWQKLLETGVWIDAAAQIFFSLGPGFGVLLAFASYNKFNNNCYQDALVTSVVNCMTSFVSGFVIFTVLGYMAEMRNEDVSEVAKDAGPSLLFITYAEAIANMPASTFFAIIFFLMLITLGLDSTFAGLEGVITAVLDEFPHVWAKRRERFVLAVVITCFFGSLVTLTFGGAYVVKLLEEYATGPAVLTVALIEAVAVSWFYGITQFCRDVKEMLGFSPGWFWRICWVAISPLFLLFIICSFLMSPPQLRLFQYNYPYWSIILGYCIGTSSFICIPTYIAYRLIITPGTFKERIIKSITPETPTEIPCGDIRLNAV

| IC50 (human 5HT1A receptor [1]) | IC50 (human 5-HTT; [3]) | IC50 (human 5HT1A receptor [2]) | h5HTT pIC50 (human 5-HTT; Example 77) | h5HT1A pIC50 (human 5HT1A receptor [2]) | h5HT1A Antagonist pIC50 (human 5HT1A receptor [1]) | SMILES | IC50 (human 5-HTT; h5HTT pIC50, Example 77) |
| --- | --- | --- | --- | --- | --- | --- | --- |
| 11000 nM | 28.2 nM | 282 nM | – | – | – | Cc1cc2c(OCCCN3C[C@@H]4C/C=C\C[C@H]3CN4c3ccc4ccccc4c3)cccc2[nH]1 [ID No. 138, 7-[3-(2-Methyl-1H-indol-4-yloxy)-propyl]-9-naphthalen-2-yl-7,9-diaza-bicyclo[4.2.2]dec-3-ene] | – |
| – | 85.1 nM | > 10000 nM | – | – | – | C#CCN1C[C@@H]2C/C=C\C[C@H]1CN2c1ccc2ccccc2c1 [compound 41] | – |
| – | – | – | 6.86 | 6.88 | <5 | Cc1cc2c(OC[C@H](O)CN3C[C@H]4C/C=C\C[C@@H]3CN4c3ccc4ccccc4c3)cccc2[nH]1 [compound 55] | – |
| > 10000 nM | 102 nM | 9770 nM | – | – | – | C1=C\C[C@H]2CN(CCNc3ccccn3)[C@@H](C/1)CN2c1ccc2ccccc2c1 [compound 142] | – |
| – | 1910 nM | > 10000 nM | – | – | – | C1=C\C[C@H]2CN(c3ccc4ccccc4c3)[C@@H](C/1)CN2C1Cc2ccccc2C1 [compound 150] | – |
| > 10000 nM | 57.5 nM | 933 nM | – | – | – | Cc1cc2c(OC[C@H](O)CN3CC4CC=CCC3CN4c3ccc4ccccc4c3)cccc2[nH]1 (stereo partly drawn) [compound 153] | – |
| > 10000 nM and 6310 nM | 110 nM and 214 nM | 52.5 nM and 115 nM | – | – | – | Cc1cc2c(OC[C@@H](O)CN3CC4CC=CCC3CN4c3ccc4ccccc4c3)cccc2[nH]1 (stereo partly drawn) [compound 155] | – |
| > 10000 nM | 29.5 nM | > 10000 nM | – | – | – | Cn1ccc2c(OC[C@@H](O)CN3C[C@H]4C/C=C\C[C@@H]3CN4c3ccc4ccccc4c3)cccc21 [compound 156] | – |
| 851 nM | 63.1 nM | 355 nM | – | – | – | O[C@H](COc1cccc2ncccc12)CN1C[C@@H]2C/C=C\C[C@H]1CN2c1ccc2ccccc2c1 [compound 160] | – |

The next lines start with the compound.

| SMILES | IC50 (human 5HT1A receptor [1]) | IC50 (human 5-HTT; [3]) | IC50 (human 5HT1A receptor [2]) | h5HTT pIC50 (human 5-HTT; Example 77) | h5HT1A pIC50 (human 5HT1A receptor [2]) | h5HT1A Antagonist pIC50 (human 5HT1A receptor [1]) | IC50 (human 5-HTT; h5HTT pIC50, Example 77) |
| --- | --- | --- | --- | --- | --- | --- | --- |
| Cc1cc2c(OC[C@@H](O)CN3C[C@@H]4C/C=C\C[C@H]3CN4c3cccc4ncccc34)cccc2[nH]1 [ID No. 136] | 309 nM | – | – | – | – | – | – |
| C1=C\C[C@H]2CN[C@@H](C/1)CN2c1cccc2ccccc12 [compound 119] | – | – | > 10000 nM | – | – | – | 70.8 nM |
| COC(=O)c1cc2c(OC[C@@H](O)CN3C[C@@H]4C/C=C\C[C@H]3CN4c3ccc4ccccc4c3)cccc2[nH]1 [compound 126] | > 10000 nM | 24 nM | 50.1 nM | – | – | – | – |
| COC(=O)c1cc2c(OC[C@@H](O)CN3C[C@@H]4C/C=C\C[C@H]3CN4c3ccc4ccccc4c3)ccc(C)c2[nH]1 [compound 127] | > 10000 nM | 39.8 nM | 363 nM | – | – | – | – |
| COC(=O)c1cc2c(OC[C@@H](O)CN3C[C@@H]4C/C=C\C[C@H]3CN4c3ccc4ccccc4c3)ccc(Cl)c2[nH]1 [compound 128] | > 10000 nM | 30.2 nM | 562 nM | – | – | – | – |
| Cc1cc2c(OC[C@@H](O)CN3C[C@@H]4C/C=C\C[C@H]3CN4c3ccc(Cl)c(Cl)c3)cccc2[nH]1 [compound 135] | 813 nM | 102 nM | 97.7 nM | – | – | – | – |
| C1=C\C[C@H]2CN[C@@H](C/1)CN2c1cccc2ncccc12 [compound 137] | > 10000 nM | 676 nM | 2340 nM | – | – | – | – |
| COc1cc2c(cc1OC)C1=NO[C@@H](CN3C[C@@H]4C/C=C\C[C@H]3CN4c3ccc4ccccc4c3)C1CO2 (stereo partly drawn) [compound 140] | – | 741 nM | > 10000 nM | – | – | – | – |
| COc1cc2c(cc1OC)C1=NO[C@H](CN3C[C@@H]4C/C=C\C[C@H]3CN4c3ccc4ccccc4c3)C1CO2 (stereo partly drawn) [compound 141] | – | 724 nM | > 10000 nM | – | – | – | – |
| COC(=O)c1cc2c(OC[C@@H](O)CN3C[C@@H]4C/C=C\C[C@H]3CN4c3ccc4ccccc4c3)cc(OC)cc2[nH]1 [compound 143] | > 10000 nM | 174 nM | 240 nM | – | – | – | – |
| Cc1cc2c(OC[C@@H](O)CN3C[C@@H]4C/C=C\C[C@H]3CN4c3ccc4ccccc4c3)c(F)ccc2[nH]1 [compound 148] | > 10000 nM | 53.7 nM | 138 nM | – | – | – | – |
| Cc1cc2c(OC[C@@H](O)CN3C[C@@H]4C/C=C\C[C@H]3CN4c3ccc4ccccc4c3)c(C)ccc2[nH]1 [compound 154] | > 10000 nM | 55 nM | 724 nM | – | – | – | – |
| Cc1cc2c(OC[C@@H](O)CN3C[C@@H]4C/C=C\C[C@H]3CN4c3cccc4ncccc34)cccc2[nH]1 [compound 157] | 759 nM | – | – | – | – | – | – |
| Cc1cc2c(OC[C@@H](O)CN3C[C@@H]4C/C=C\C[C@H]3CN4c3cnc4ccccc4c3)cccc2[nH]1 [compound 158] | 1150 nM | 251 nM | 126 nM | – | – | – | – |
| Cc1cc2c(OC[C@@H](O)CN3C[C@@H]4C/C=C\C[C@H]3CN4c3ccc4c(c3)OCCO4)cccc2[nH]1 [compound 159] | 47.9 nM | 759 nM | 10.7 nM | – | – | – | – |
